PMC3707514 (Chemical research in toxicology, 2013)
Blank lines part the entries; values can stand above or below the molecule they belong to.

What was measured:
P450 2S1 [1] = molecular target: T1, P450 2S1 (Homo sapiens, UniProt Q96SQ9); type: biochemical
T1 sequence (Q96SQ9 1-504): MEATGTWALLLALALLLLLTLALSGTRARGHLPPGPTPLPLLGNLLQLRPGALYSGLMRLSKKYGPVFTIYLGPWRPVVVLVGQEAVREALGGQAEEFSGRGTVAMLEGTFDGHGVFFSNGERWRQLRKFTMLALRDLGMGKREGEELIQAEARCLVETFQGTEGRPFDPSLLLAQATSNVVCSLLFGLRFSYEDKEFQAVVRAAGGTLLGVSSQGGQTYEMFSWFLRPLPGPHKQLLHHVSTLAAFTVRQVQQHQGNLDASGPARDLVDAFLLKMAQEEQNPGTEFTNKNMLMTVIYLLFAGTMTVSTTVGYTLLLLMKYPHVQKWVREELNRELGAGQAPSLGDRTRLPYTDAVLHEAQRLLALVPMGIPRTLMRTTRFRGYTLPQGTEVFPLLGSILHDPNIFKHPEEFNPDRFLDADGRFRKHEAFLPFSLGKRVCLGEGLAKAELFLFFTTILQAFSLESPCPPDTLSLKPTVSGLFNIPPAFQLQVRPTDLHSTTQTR

P450 2S1 [2] = molecular target: T1, P450 2S1; type: biochemical; remark: listed apart in the source
P450 2S1 [3] = molecular target: T1, P450 2S1; type: biochemical; remark: listed apart in the source
P450 2S1 [4] = molecular target: T1, P450 2S1; test: UV-visible difference spectral titration of purified P450 2S1; type: binding

SMILES: ONc1ccc2c(c1)Cc1ccccc1-2 [2-HONH-fluorene]
anaerobic reduction to 2-aminofluorene by purified P450 2S1, HPLC, minus-P450 co (P450 2S1 [1]): 0.34 ± 0.12 min⁻¹

SMILES: ONc1ccc2ccccc2c1 [2-HONH-naphthalene]
anaerobic reduction to 2-naphthylamine by purified P450 2S1, HPLC, minus-P450 co (P450 2S1 [2]): 2.4 ± 0.8 min⁻¹

SMILES: ONc1ccc(-c2ccccc2)cc1 [4-HONH-biphenyl]
anaerobic reduction to 4-aminobiphenyl by purified P450 2S1, HPLC, minus-P450 co (P450 2S1 [3]): 0.18 ± 0.01 min⁻¹

Kd (P450 2S1 [4]): 30 ± 10 µM
SMILES: Cc1cc(-c2nc3cc(F)ccc3s2)ccc1NO [HONH-5F 203, 2-(4-hydroxylamino-3-methylphenyl)-5-fluorobenzothiazole]
